Assay results reported in US20080207708A1, “Oxazole and Thiazole Compounds and Their Use in the Treatment of Pge2 Mediated Disorders” (GLAXO GROUP LIMITED, priority 2005, published 2008).
Where a name gives a salt, the structure may show the parent alone.

Columns and labels:
[1] = system: gastric lesions in rats; details: lesions induced by taurocholate acid, aspirin or indomethacin, J. Pharmacol. Exp. Ther. 1992, 263(1), 374-380; cited from earlier work
[2] = molecular target: T1, EP1 receptors (Homo sapiens, UniProt P34995); assay: human EP1 calcium mobilisation assay (CHO-K1 cells, FLIPR, PGE2); type: cell-based; set-up: expressed in transfected cells; host or cells: CHO-K1 cells, pCIN vector; details: free bases or sodium salts; averages of a number of experiments; read-out: functional pKi value, human EP1 calcium mobilisation assay (converted)
T1 sequence (P34995 1-402): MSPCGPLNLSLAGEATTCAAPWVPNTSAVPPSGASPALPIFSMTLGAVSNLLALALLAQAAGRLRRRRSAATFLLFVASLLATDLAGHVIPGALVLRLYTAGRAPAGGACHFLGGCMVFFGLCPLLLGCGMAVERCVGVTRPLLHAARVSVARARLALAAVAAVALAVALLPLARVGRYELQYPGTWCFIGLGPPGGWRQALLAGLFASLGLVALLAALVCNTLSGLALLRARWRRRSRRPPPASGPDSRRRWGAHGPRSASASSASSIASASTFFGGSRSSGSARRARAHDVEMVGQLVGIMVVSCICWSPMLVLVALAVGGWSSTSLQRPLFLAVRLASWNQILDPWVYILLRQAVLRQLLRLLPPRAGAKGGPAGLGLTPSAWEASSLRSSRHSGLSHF
Method in brief: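 CHO-K1 cells stably transfected with human EP1 cDNA, loaded with Fluo-4 AM after 24 h culture at 37° C. Compounds added first, then PGE2; antagonism read as inhibition of PGE2-induced intracellular calcium rise on FLIPR. pIC50 taken as concentration giving half-maximal inhibition, from curve fitting.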

[3] = molecular target: T1, EP1 receptors; assay: Binding assay for the human prostanoid EP1 receptor (competition with [3H]-PGE2); set-up: expressed in transfected cells; host or cells: CHO-K1 cells, membrane fraction; details: [3H]-PGE2 competition; averages of a number of experiments; read-out: pIC50 value, binding assay for the human prostanoid EP1 receptor (converted)
Method in brief: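 Competition against 3 nM (final) tritiated PGE2 at 30° C for 30 min, pH 6 MES assay buffer, using membranes of stably transfected CHO-K1 cells. Filter-retained counts by scintillation; nonlinear curve fitting gives concentration inhibiting 50% of specific binding.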

[4] = system: rat model of chronic constriction injury; details: Anesthesia and Analgesia 2001, 93, 1012-7; cited from earlier work
[5] = system: rodent model of post-operative pain; details: Anesthesia and Analgesia 2001, 92, 233-238; cited from earlier work

Compound | Ki [2] [µM] | IC50 [3] [µM] | gastric lesions [1] | hyperalgesia and allodynia [4] | mechanical hyperalgesia [5]
O=C(O)Cc1ccc(CCNS(=O)(=O)c2ccc(Cl)cc2)cc1 [BM 13505] |  |  | inhibit gastric lesions |  | 
CC(C)COc1ccc(Cl)cc1Nc1nc(-c2nc3ccc(N4CCN(C)CC4)cc3[nH]2)cs1 [Example 165, N-{5-Chloro-2-[(2-methylpropyl)oxy]phenyl}-4-[5-(4-methyl-1-piperazinyl)-1H-benzimidazol-2-yl]-1,3-thiazol-2-aminetrihydrochloride] | > 1 | ≤ 0.0316 |  |  | 
CC(C)COc1ccc(Cl)cc1Cc1nc(-c2nc3ccc(CCN(C)C)cc3[nH]2)co1 [Example 166, (2-{2-[2-({5-Chloro-2-[(2-methylpropyl)oxy]phenyl}methyl)-1,3-oxazol-4-yl]-1H-benzimidazol-5-yl}ethyl)dimethylamine hydrochloride] | < 1 | ≤ 0.0316 |  |  | 
CC(C)COc1ccc(Cl)cc1Cc1nc(-c2nc3ccc(CCN4CCCCC4)cc3[nH]2)co1 [Example 168, 2-[2-({5-chloro-2-[(2-methylpropyl)oxy]phenyl}methyl)-1,3-oxazol-4-yl]-5-[2-(1-piperidinyl)ethyl]-1H-benzimidazolehydrochloride] | < 1 | ≤ 0.0316 |  |  | 
CN(C)Cc1ccc2nc(-c3coc(Cc4cc(Cl)ccc4OCc4ccccc4)n3)[nH]c2c1 [Example 170, ({2-[2-({5-chloro-2-[(phenylmethyl)oxy]phenyl}-methyl)-1,3-oxazol-4-yl]-1H-benzimidazol-5-yl}methyl)dimethylaminehydrochloride] | < 1 | ≤ 1 |  |  | 
Clc1ccc(OCc2ccccc2)c(Cc2nc(-c3nc4ccc(CN5CCCCC5)cc4[nH]3)co2)c1 [Example 172, 2-[2-({5-chloro-2-[(phenylmethyl)oxy]phenyl}-methyl)-1,3-oxazol-4-yl]-5-(1-piperidinylmethyl)-1H-benzimidazolehydrochloride] | < 1 | ≤ 1 |  |  | 
CNCc1ccc2nc(-c3coc(Cc4cc(Cl)ccc4OCC(C)C)n3)[nH]c2c1 [Example 174, ({2-[2-({5-Chloro-2-[(2-methylpropyl)oxy]phenyl}methyl)-1,3-oxazol-4-yl]-1H-benzimidazol-5-yl}methyl)methylaminedihydrochloride] | < 1 | ≤ 0.0316 |  |  | 
CC(C)COc1ccc(Cl)cc1Cc1nc(-c2nc3ccc(CN4CCN(C)CC4)cc3[nH]2)co1 [Example 178, 2-[2-({5-Chloro-2-[(2-methylpropyl)oxy]phenyl}methyl)-1,3-oxazol-4-yl]-5-[(4-methyl-1-piperazinyl)methyl]-1H-benzimidazoletrihydrochloride] | < 1 | ≤ 0.0316 |  |  | 
CC(C)COc1ccc(Cl)cc1Nc1nc(-c2nc3ccc(CN(C)C)cc3[nH]2)cs1 [Example 180, N-{5-Chloro-2-[(2-methylpropyl)oxy]phenyl}-4-{5-[(dimethylamino)methyl]-1H-benzimidazol-2-yl}-1,3-thiazol-2-aminehydrochloride] | > 1 | ≤ 0.0316 |  |  | 
Cc1cc(Cl)ccc1S(=O)(=O)NC[C@H]1C2CCC(CC2)[C@@H]1/C=C\CCCC(=O)O [ONO-8711] |  |  |  | reduces hyperalgesia and allodynia | inhibits mechanical hyperalgesia
O=C(O)CCc1ccccc1CC1C2CCC(O2)C1c1nc(C(=O)NCCCCC2CCCCC2)co1 (stereo not drawn) [SQ 33961] |  |  | inhibit gastric lesions |  | 

Continued, in another order:

Ki [2] [µM] | IC50 [3] [µM] | Compound | gastric lesions [1] | hyperalgesia and allodynia [4] | mechanical hyperalgesia [5]
< 1 | ≤ 0.0316 | CC(C)COc1ccc(Cl)cc1Cc1nc(-c2nc3ccc(CCN4CCN(C)CC4)cc3[nH]2)co1 [Example 167, 2-[2-({5-chloro-2-[(2-methylpropyl)oxy]phenyl}methyl)-1,3-oxazol-4-yl]-5-[2-(4-methyl-1-piperazinyl)ethyl]-1H-benzimidazolehydrochloride] |  |  | 
< 1 | ≤ 0.0316 | CC(C)COc1ccc(Cl)cc1Cc1nc(-c2nc3ccc(CCN4CCCC4)cc3[nH]2)co1 [Example 169, 2-[2-({5-chloro-2-[(2-methylpropyl)oxy]phenyl}methyl)-1,3-oxazol-4-yl]-5-[2-(1-pyrrolidinyl)ethyl]-1H-benzimidazolehydrochloride] |  |  | 
< 1 | ≤ 1 | CN1CCN(Cc2ccc3nc(-c4coc(Cc5cc(Cl)ccc5OCc5ccccc5)n4)[nH]c3c2)CC1 [Example 171, 2-[2-({5-chloro-2-[(phenylmethyl)oxy]phenyl}-methyl)-1,3-oxazol-4-yl]-5-[(4-methyl-1-piperazinyl)methyl]-1H-benzimidazolehydrochloride] |  |  | 
< 1 | ≤ 1 | Clc1ccc(OCc2ccccc2)c(Cc2nc(-c3nc4ccc(CN5CCCC5)cc4[nH]3)co2)c1 [Example 173, 2-[2-({5-chloro-2-[(phenylmethyl)oxy]phenyl}-methyl)-1,3-oxazol-4-yl]-5-(1-pyrrolidinylmethyl)-1H-benzimidazolehydrochloride] |  |  | 
< 1 | ≤ 0.0316 | CC(C)COc1ccc(Cl)cc1Cc1nc(-c2nc3ccc(CN(C)C)cc3[nH]2)co1 [Example 175, ({2-[2-({5-Chloro-2-[(2-methylpropyl)oxy]phenyl}methyl)-1,3-oxazol-4-yl]-1H-benzimidazol-5-yl}methyl)dimethylaminedihydrochloride] |  |  | 
< 1 | ≤ 0.0316 | CC(C)COc1ccc(Cl)cc1Cc1nc(-c2nc3ccc(CN4CCCC4)cc3[nH]2)co1 [Example 176, 2-[2-({5-chloro-2-[(2-methylpropyl)oxy]phenyl}methyl)-1,3-oxazol-4-yl]-5-(1-pyrrolidinylmethyl)-1H-benzimidazoledihydrochloride] |  |  | 
< 1 | ≤ 0.0316 | CC(C)COc1ccc(Cl)cc1Cc1nc(-c2nc3ccc(CN4CCCCC4)cc3[nH]2)co1 [Example 177, 2-[2-({5-chloro-2-[(2-methylpropyl)oxy]phenyl}methyl)-1,3-oxazol-4-yl]-5-(1-piperidinylmethyl)-1H-benzimidazoledihydrochloride] |  |  | 
> 1 | ≤ 0.0316 | CNCc1ccc2nc(-c3csc(Nc4cc(Cl)ccc4OCC(C)C)n3)[nH]c2c1 [Example 179, N-{5-Chloro-2-[2-methylpropyl)oxy]phenyl}-4-{5-[(methylamino)methyl]-1H-benzimidazol-2-yl}-1,3-thiazol-2-amine hydrochloride] |  |  | 
> 1 | ≤ 1 | CC(C)COc1ccc(Cl)cc1Nc1nc(-c2nc3ccc(CN4CCCC4)cc3[nH]2)cs1 [Example 181, N-{5-Chloro-2-[(2-methylpropyl)oxy]phenyl)-4-[5-(1-pyrrolidinylmethyl)-1H-benzimidazol-2-yl]-1,3-thiazol-2-amine] |  |  | 
> 1 | ≤ 1 | CC(C)COc1ccc(Cl)cc1Nc1nc(-c2nc3ccc(CN4CCCCC4)cc3[nH]2)cs1 [Example 182, N-{5-Chloro-2-[(2-methylpropyl)oxy]phenyl}-4-[5-(1-piperidinylmethyl)-1H-benzimidazol-2-yl]-1,3-thiazol-2-amine] |  |  | 
< 1 | ≤ 0.0316 | CC(C)COc1ccc(Cl)cc1Nc1nc(-c2nc3ccc(CN4CCN(C)CC4)cc3[nH]2)cs1 [Example 183, N-{5-Chloro-2-[(2-methylpropyl)oxy]phenyl}-4-{5-[(4-methyl-1-piperazinyl)methyl]-1H-benzimidazol-2-yl}-1,3-thiazol-2-amine] |  |  | 
